Assay results as given in patent US20240316012A1, “METHODS FOR TREATING LYMPHOMA” (Northwestern University, priority 2023, published 2024).

System: ACLY (p-ACLY^S455)
Test: Western blot analysis of p-ACLY^S455
Assay type: cell-based, mouse
Conditions: overnight in vitro with anti-PD-L1; Wortmannin 20 nM, LY294002 20 μM; 2 μM, 10 μM
Protocol: FIGS. 4A-4H show ACLY is a critical effector molecule downstream of PD-1. […] ITK-SYK^+ cells were FACS-sorted from ITK-SYK^CD4-creERT2 mice on d5 after TAM and 12 h anti-PD-L1 or isotype control antibody treatment (i.p., 200 μg). P=paired two-sided Student's t-test. Data are presented as the mean±SD. […] Spleen-derived single-cell suspensions were FACS-sorted from ITK-SYK^CD4-creERT2 mice on d5 after TAM and cultured in vitro overnight with anti-PD-L1 or isotype control antibodies and the PI3K inhibitors (“iPI3K”) Wortmannin (20 nM), LY294002 (20 μM), or DMSO. […] Spleen-derived lymphocytes, FACS-sorted from ITK-SYK^CD4-creERT2 and ITK-SYK^CD4-creERT2; Pdcd1^−/− mice on d5 after TAM were incubated for three days in vitro. P=two-sided Student's t-test. Data are presented as the mean±SD. […] Protein lysates were generated after 48 h in vitro culture. RNP, ribonucleoprotein. […] P=two-sided Logrank-test. […] ITK-SYK^+ cells were FACS-sorted from ITK-SYK^CD4-creERT2 (“Pdcd1^+/+”) and ITK-SYK^CD4-creERT2; Pdcd1^−/− (“Pdcd1^−/−”) mice on d5 after TAM, fixed, and processed for anti-H3K27ac ChIP-seq analysis. ChIP-seq, chromatin immunoprecipitation sequencing; TSS, transcription start site. FIG. 4B, Representative data from three independent experiments with three biological replicates per group. FIG. 4C, Representative data from two independent experiments with two biological replicates. […]

Structure (SMILES): O=c1cc(N2CCOCC2)oc2c(-c3ccccc3)cccc12 [LY294002, 2-(4-morpholinyl)-8-phenyl-4H-1-benzopyran-4-one]
- p-ACLY^S455 phosphorylation induced by PD-1 inactivation: could be reversed
